The values below come from patent US20250163047A1, “HETEROCYCLIC COMPOUNDS, COMPOSITIONS THEREOF, AND METHODS OF TREATMENT THEREWITH” (BeiGene, Ltd., priority 2022, published 2025).

Assay [1] addresses T1, Cbl-b (aa36-427) (Homo sapiens, UniProt Q13191).
T1 construct: Cbl-b (aa36-427, in-house); made in house
The assay is described as follows: Co-expressed Cbl-b with BirA biochemical assay (CBLB/E2-Ub binding, HTRF). From the text:
(§1) The assay in the absence of a Cbl-b/Cbl inhibitor, where phosphorylation of Cbl-b/Cbl by the Src kinase allows UbcH5B-Ub to bind to Cbl-b/Cbl and brings the Bodipy-Fluorescein tagged ubiquitin in proximity to the streptavidin-terbium bound to the N-terminal biotinylated Avi-tagged Cbl-b/Cbl. […] The lack of a FRET signal indicates Cbl-b/Cbl is inhibited by the Cbl-b/Cbl inhibitor.
A general note: Time-resolved FRET reads energy transfer from a long-lived donor to a nearby acceptor.

For assay [2], the target named is T2, Cbl (aa49-434) (Homo sapiens, UniProt P22681).
T2 construct: Cbl (aa49-434, in-house); made in house
T2 sequence (P22681 49-434): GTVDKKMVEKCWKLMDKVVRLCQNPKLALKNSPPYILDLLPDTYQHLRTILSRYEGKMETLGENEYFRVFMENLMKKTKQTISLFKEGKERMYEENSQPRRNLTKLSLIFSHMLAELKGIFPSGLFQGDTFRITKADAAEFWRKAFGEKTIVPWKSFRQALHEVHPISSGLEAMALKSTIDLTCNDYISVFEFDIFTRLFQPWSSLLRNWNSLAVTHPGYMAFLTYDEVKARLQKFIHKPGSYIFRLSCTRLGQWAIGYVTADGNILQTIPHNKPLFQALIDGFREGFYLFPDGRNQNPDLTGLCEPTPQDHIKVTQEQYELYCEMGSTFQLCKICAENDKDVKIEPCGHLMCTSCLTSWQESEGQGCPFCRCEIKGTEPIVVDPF
The assay is described as follows: Co-expressed Cbl with BirA biochemical assay (CBL/E2-Ub binding, HTRF). The conditions noted are these: 0.6 nM Cbl co-expressed with BirA, read-out: co-express CBL/E2-Ub-binding assay IC50.
Text: as §1

[3] abbreviates: 0.6 nM Cbl-b co-expressed with BirA, HTRF, read-out: co-express CBLB/E2-Ub-binding assay IC50.

pIC50: −log10 of the molar value. Read-outs that look alike come from different tables or passages of the source.

T1 sequence (Q13191 36-427): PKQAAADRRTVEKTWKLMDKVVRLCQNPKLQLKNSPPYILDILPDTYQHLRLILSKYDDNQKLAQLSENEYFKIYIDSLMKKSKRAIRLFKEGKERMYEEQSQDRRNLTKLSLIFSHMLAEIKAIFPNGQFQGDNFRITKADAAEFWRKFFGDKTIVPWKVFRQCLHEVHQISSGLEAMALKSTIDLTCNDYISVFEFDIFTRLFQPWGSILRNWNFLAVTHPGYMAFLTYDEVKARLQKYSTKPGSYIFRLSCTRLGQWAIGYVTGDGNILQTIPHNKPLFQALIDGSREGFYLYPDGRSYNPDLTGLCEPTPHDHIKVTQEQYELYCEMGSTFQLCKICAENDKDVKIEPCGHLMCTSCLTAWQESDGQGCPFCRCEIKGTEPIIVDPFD

`Cn1cnnc1[C@]1(c2cccc(NC(=O)c3cc(CNCC4CCCC4)cn4ccnc34)c2)C[C@H](CC#N)C1` [Compound A26, N-(3-((1s, 3s)-3-(cyanomethyl)-1-(4-methyl-4H-1,2,4-triazol-3-yl)cyclobutyl)phenyl)-6-(((cyclopentylmethyl)amino)methyl)imidazo[1,2-a]pyridine-8-carboxamide]: the pIC50 in assay [1] (setting [3]) was 8.89; in assay [2], 8.20.
`CC(C)CNCc1cc(C(=O)Nc2cncc([C@]3(c4nncn4C)C[C@@H](C)C3)c2)nc2c(Cl)c[nH]c12` [Compound B55, 3-chloro-7-((isobutylamino)methyl)-N-(5-((1s, 3s)-3-methyl-1-(4-methyl-4H-1,2,4-triazol-3-yl)cyclobutyl)pyridin-3-yl)-1H-pyrrolo[3,2-b]pyridine-5-carboxamide]: the pIC50 in assay [1] is 8.80; in assay [2] it was 7.85.
With `Cn1cnnc1[C@]1(c2cccc(NC(=O)c3cc(CNC4(C)CC4)cc4c(F)cnn34)c2)C[C@H](CC#N)C1` [Compound A94, N-(3-((1s, 3s)-3-(cyanomethyl)-1-(4-methyl-4H-1,2,4-triazol-3-yl)cyclobutyl)phenyl)-3-fluoro-5-(((1-methylcyclopropyl)amino)methyl)pyrazolo[1,5-a]pyridine-7-carboxamide], the pIC50 in assay [1] (setting [3]) was 9.30; in assay [2], 8.23.
On the same counts, the results for `C[C@H](NCc1cc(C(=O)Nc2cccc([C@]3(c4nncn4C)C[C@@H](CC#N)C3)c2)nc2c1OCC2(C)C)C1CCC1` [Compound C28, 7-({[(1S)-1-cyclobutylethyl]amino}methyl)-3,3-dimethyl-N-{3-[(1s, 3s)-3-(cyanomethyl)-1-(4-methyl-1,2,4-triazol-3-yl)cyclobutyl]phenyl}-2H-furo[3,2-b]pyridine-5-carboxamide] are 9.10 and 8.48.
On the same counts, the results for `Cn1cnnc1[C@]1(c2cccc(NC(=O)c3cc(CN[C@H]4CCC(F)(F)C4)cn4ccnc34)c2)C[C@H](CC#N)C1` [Compound A23, N-(3-((1s,3R)-3-(cyanomethyl)-1-(4-methyl-4H-1,2,4-triazol-3-yl)cyclobutyl)phenyl)-6-((((S)-3,3-difluorocyclopentyl)amino)methyl)imidazo[1,2-a]pyridine-8-carboxamide] are 8.85 and 7.94.
With `Cc1c[nH]c2c(CN3CC[C@H](F)[C@H](C)C3)cc(C(=O)Nc3cccc([C@]4(c5nncn5C)C[C@@H](C)C4)c3)nc12` [Compound B34, 7-(((3R,4S)-4-fluoro-3-methylpiperidin-1-yl)methyl)-3-methyl-N-(3-((1s,3S)-3-methyl-1-(4-methyl-4H-1,2,4-triazol-3-yl)cyclobutyl)phenyl)-1H-pyrrolo[3,2-b]pyridine-5-carboxamide], the figures for the pIC50 in assay [1] (setting [3]) and in assay [2] were 8.80 and 8.26, respectively.
On the same counts, the results for `C[C@@H]1CN(Cc2cc(C(=O)Nc3cncc([C@]4(c5nncn5C)C[C@@H](C)C4)c3)nc3c2NCC3(C)C)CC[C@@H]1F` [Compound C58, 7-(((3R,4S)-4-fluoro-3-methylpiperidin-1-yl)methyl)-3,3-dimethyl-N-(5-((1s,3S)-3-methyl-1-(4-methyl-4H-1,2,4-triazol-3-yl)cyclobutyl)pyridin-3-yl)-2,3-dihydro-1H-pyrrolo[3,2-b]pyridine-5-carboxamide] are 8.77 and 8.49.
On the same counts, the results for `C[C@H]1CCCN(Cc2cc(C(=O)Nc3cccc([C@]4(c5nncn5C)C[C@@H](CC#N)C4)c3)nc3sccc23)C1` [Compound B18, 4-{[(3S)-3-methylpiperidin-1-yl]methyl}-N-{3-[(1s, 3s)-3-(cyanomethyl)-1-(4-methyl-1,2,4-triazol-3-yl)cyclobutyl]phenyl}thieno[2,3-b]pyridine-6-carboxamide] are 8.80 and 7.89.
`C[C@H]1CCCN(Cc2cc(C(=O)Nc3cccc([C@]4(c5nncn5C)C[C@@H](CC#N)C4)c3)n3nccc3c2)C1` [Compound A11, 5-{[(3S)-3-methylpiperidin-1-yl]methyl}-N-{3-[(1s, 3s)-3-(cyanomethyl)-1-(4-methyl-1,2,4-triazol-3-yl)cyclobutyl]phenyl}pyrazolo[1,5-a]pyridine-7-carboxamide]: the pIC50 in assay [1] (setting [3]) is 8.18; in assay [2] it was 7.34.
As to `Cn1cnnc1[C@]1(c2cncc(NC(=O)c3cc(CNC4(C)CCC4)c4[nH]cc(Cl)c4n3)c2)C[C@H](C)C1` [Compound B52, 3-chloro-N-(5-((1s, 3s)-3-methyl-1-(4-methyl-4H-1,2,4-triazol-3-yl)cyclobutyl)pyridin-3-yl)-7-(((1-methylcyclobutyl)amino)methyl)-1H-pyrrolo[3,2-b]pyridine-5-carboxamide], the pIC50 in assay [1] (setting [3]) is 8.30; in assay [2], 7.72.
On the same counts, the results for `Cn1cnnc1[C@]1(c2cccc(NC(=O)c3cc(CNCC4CCC4)cn4ccnc34)c2)C[C@H](C)C1` [Compound A22, 6-(((cyclobutylmethyl)amino)methyl)-N-(3-((1s, 3s)-3-methyl-1-(4-methyl-4H-1,2,4-triazol-3-yl)cyclobutyl)phenyl)imidazo[1,2-a]pyridine-8-carboxamide] are 8.96 and 8.44.
On the same counts, the results for `Cn1cnnc1[C@]1(c2cncc(NC(=O)c3cc(CNC4(C)CC4)cn4c(Cl)cnc34)c2)C[C@H](C)C1` [Compound A73, 3-chloro-N-(5-((1s, 3s)-3-methyl-1-(4-methyl-4H-1,2,4-triazol-3-yl)cyclobutyl)pyridin-3-yl)-6-(((1-methylcyclopropyl)amino)methyl)imidazo[1,2-a]pyridine-8-carboxamide] are 8.92 and 8.55.
As for `C[C@H](NCc1cc(C(=O)Nc2cccc([C@]3(c4nncn4C)C[C@@H](CC#N)C3)c2)nc2c1NCC21CC1)C1CC1` [Compound C36, N-(3-((1s,3R)-3-(cyanomethyl)-1-(4-methyl-4H-1,2,4-triazol-3-yl)cyclobutyl)phenyl)-7′-((((S)-1-cyclopropylethyl)amino)methyl)-1′,2′-dihydrospiro[cyclopropane-1,3′-pyrrolo[3,2-b]pyridine]-5′-carboxamide], the pIC50 was 8.74 in assay [1] (setting [3]) and 8.55 in assay [2].
On the same counts, the results for `C[C@H]1CCCN(Cc2cc(C(=O)Nc3cccc([C@]4(Cc5nncn5C)C[C@@H](C#N)C4)c3)nc3c2NCC3(C)C)C1` [Compound C12, 3,3-dimethyl-7-{[(3S)-3-methylpiperidin-1-yl]methyl}-N-{3-[(1r, 3r)-3-cyano-1-[(4-methyl-1,2,4-triazol-3-yl)methyl]cyclobutyl]phenyl}-1H,2H-pyrrolo[3,2-b]pyridine-5-carboxamide] are 8.85 and 8.89.
In the case of `Cn1cnnc1[C@]1(c2cccc(NC(=O)c3cc(CNC4(C)CC4)c4c(n3)C(C)(C)CC4)c2)C[C@H](CC#N)C1` [Compound C24, N-(3-((1s, 3s)-3-(cyanomethyl)-1-(4-methyl-4H-1,2,4-triazol-3-yl)cyclobutyl)phenyl)-7,7-dimethyl-4(((1methylcyclopropyl)amino)methyl)-6,7-dihydro-5H-cyclopenta[b]pyridine-2-carboxamide], the pIC50 in assay [1] (setting [3]) is 8.80; in assay [2], 7.98.
On the same counts, the results for `C[C@H](NCc1cc(C(=O)Nc2cccc([C@]3(c4nncn4C)C[C@@H](CC#N)C3)c2)nc2c1CCC2(C)C)C1CC1` [Compound C39, N-(3-((1s,3R)-3-(cyanomethyl)-1-(4-methyl-4H-1,2,4-triazol-3-yl)cyclobutyl)phenyl)-4-((((S)-1-cyclopropylethyl)amino)methyl)-7,7-dimethyl-6,7-dihydro-5H-cyclopenta[b]pyridine-2-carboxamide] are 9.10 and 8.54.
On the same counts, the results for `Cc1c[nH]c2c(CNCC(C)C)cc(C(=O)Nc3cncc([C@]4(c5nncn5C)C[C@@H](C)C4)c3)nc12` [Compound B21, 7-((isobutylamino)methyl)-3-methyl-N-(5-((1s, 3s)-3-methyl-1-(4-methyl-4H-1,2,4-triazol-3-yl)cyclobutyl)pyridin-3-yl)-1H-pyrrolo[3,2-b]pyridine-5-carboxamide] are 8.66 and 8.12.
On the same counts, the results for `C[C@H]1CCCN(Cc2cc(C(=O)Nc3cccc(C4(Cc5nncn5C)COC4)c3)c3nc(F)cn3c2)C1` [Compound A7, (S)-2-fluoro-N-(3-(3-((4-methyl-4H-1,2,4-triazol-3-yl)methyl)oxetan-3-yl)phenyl)-6-((3-methylpiperidin-1-yl)methyl)imidazo[1,2-a]pyridine-8-carboxamide] are 8.36 and 7.84.
For `Cn1cnnc1C[C@]1(c2cccc(NC(=O)c3cc(CNC4CCCCC4)c4c(n3)C(C)(C)CO4)c2)C[C@H](C#N)C1` [Compound C48, N-(3-((1r, 3r)-3-cyano-1-((4-methyl-4H-1,2,4-triazol-3-yl)methyl)cyclobutyl)phenyl)-7-((cyclohexylamino)methyl)-3,3-dimethyl-2,3-dihydrofuro[3,2-b]pyridine-5-carboxamide], the values for the pIC50 in assay [1] (setting [3]) and in assay [2] were 8.57 and 8.20, respectively.
